Experimental findings from ChEMBL document CHEMBL2029278 (Bioorg Med Chem Lett, 2012) are described below.

Experiment [1] addresses T1, Neuraminidase (Influenza A virus, UniProt B4URF0). As to the kind of experiment: Inhibition of Influenza A virus H9N2 neuraminidase using 4-MU-NANA as substrate by fluorescence assay.
Experiment [2] addresses T1, Neuraminidase. As to the kind of experiment: Inhibition of Influenza A virus H1N1 neuraminidase using 4-MU-NANA as substrate by fluorescence assay.
A further experiment concerns Influenza A virus. As to the kind of experiment: Antiviral activity against Influenza A virus PR/8/34 H1N1 infected in dog MDCK cells assessed as reduction in virus-induced cytopathic effect at 5 ug/mL. It is filed as functional, organism-based. To be noted: A/Puerto Rico/8/1934(H1N1).
The target of experiment [3] is T1, Neuraminidase. As to the kind of experiment: Inhibition of wild type H1N1 swine influenza virus neuraminidase using 4-MU-NANA as substrate by fluorescence assay.

Calls of active or inactive are those of the source. No cut-off for these calls is given here.

T1 sequence (B4URF0 whole entry): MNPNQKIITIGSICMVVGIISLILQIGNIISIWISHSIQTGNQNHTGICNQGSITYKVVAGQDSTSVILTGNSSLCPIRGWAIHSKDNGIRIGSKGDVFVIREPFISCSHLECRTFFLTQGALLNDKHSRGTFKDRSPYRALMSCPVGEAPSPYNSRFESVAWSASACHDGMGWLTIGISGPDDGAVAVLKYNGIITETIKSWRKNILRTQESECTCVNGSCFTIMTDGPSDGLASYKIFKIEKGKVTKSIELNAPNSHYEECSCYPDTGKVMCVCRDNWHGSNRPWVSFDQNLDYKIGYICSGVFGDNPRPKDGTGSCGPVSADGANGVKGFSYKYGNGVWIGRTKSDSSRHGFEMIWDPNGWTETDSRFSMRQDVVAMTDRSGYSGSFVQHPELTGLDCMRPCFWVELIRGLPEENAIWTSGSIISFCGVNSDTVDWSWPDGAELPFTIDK

With `COc1c2c(cc3c(=O)c4ccccc4oc13)OCO2`, the IC50 against Neuraminidase [1] and on Neuraminidase [2] was over 370 µM in each case.
`COc1cccc2oc3ccc(O)cc3c(=O)c12`: the IC50 against Neuraminidase [1] and against Neuraminidase [2] was over 413 µM throughout.
`O=c1c2cc(O)ccc2oc2cccc(O)c12`: the half-maximal inhibitory concentration (IC50) at Neuraminidase [1] was 98.4 µM; against Neuraminidase [2] it was 103 µM; at Neuraminidase [3], 50.6 µM. In the experiment with Influenza A virus, the result was Active.
Turning to `COc1c(O)cc2c(=O)c3ccccc3oc2c1OC`, the IC50 against Neuraminidase [1] and against Neuraminidase [2] was over 367 µM throughout.
Consider `O=c1c2cccc(O)c2oc2cc(O)c(O)c(O)c12`, for which the figures for the IC50 against Neuraminidase [1], against Neuraminidase [2] and against Neuraminidase [3] were 76.1 µM, 103 µM and 52.6 µM, respectively. Further, the result in the experiment on Influenza A virus was Active.
For `COc1cc(O)c2oc3ccccc3c(=O)c2c1OC`, the IC50 against Neuraminidase [1] and against Neuraminidase [2] was over 367 µM throughout.
Regarding `O=c1c2cc(O)ccc2oc2cc(O)cc(O)c12`, the IC50 at Neuraminidase [1] is 101 µM; against Neuraminidase [2] it was 110 µM; against Neuraminidase [3] it was 54.9 µM. The outcome in the experiment with Influenza A virus was Active.
For `O=c1c2ccccc2oc2cc(O)cc(O)c12` the same measures were 67.7 µM, 102 µM, 48.9 µM and “Active”.
Taken in the same sequence, the figures for `COc1ccc(O)c2c(=O)c3cc(O)ccc3oc12` were 99.1 µM, 110 µM, 36.1 µM and “Active”.
With `COc1c(O)cc2oc3cc(O)ccc3c(=O)c2c1OC`, the IC50 against Neuraminidase [1] and against Neuraminidase [2] was over 347 µM in each case.
